{"source": "patent US6689773B2", "about": "“Uracil substituted phenyl sulfamoyl carboxamides” (BASF Aktiengesellschaft, priority 2000, dated 2004)", "assay_type_in_all_cases": "in vivo", "key": {"[1]": {"test_system": "ABUTH, Velvetleaf, Abutilon theophrasti, Medic.", "assay": "Postemergence herbicidal evaluation (Example 147)", "conditions": "rating scale 0-9, two to three weeks after treatment", "protocol": "(§1) Seedling plants were grown in jiffy flats for about two weeks. The test compounds were dispersed in 80/20 acetone/water mixtures containing 1.0% SUN-IT®II, a methylated seed oil, in sufficient quantities to provide the equivalent of about 0.016 to 0.032 kg per hectare of active compound when applied to the plants through a spray nozzle operating at 40 psi for a predetermined time. After spraying, the plants were placed on greenhouse benches and were cared for in accordance with conventional greenhouse procedures. Approximately two to three weeks after treatment, the seedling plants were examined and rated according to the rating scale (0-9) set forth below. Where more than one test is involved for a given compound, the data are averaged. [table] The scale is based upon a visual observation of plant stand, vigor, malformation, size, chlorosis and overall plant appearance as compared with a control. Plant species employed in these evaluations are reported by header abbreviation, common name and scientific name. [table]"}, "[2]": {"test_system": "ALOMY, Blackgrass, Alopecurus myosuroides", "assay": "Postemergence herbicidal evaluation (Example 147)", "conditions": "rating scale 0-9, two to three weeks after treatment", "protocol": "as §1"}, "[3]": {"test_system": "AMBEL, Ragweed, Common, Ambrosia artemiisifolia, L.", "assay": "Postemergence herbicidal evaluation (Example 147)", "conditions": "rating scale 0-9, two to three weeks after treatment", "protocol": "as §1"}, "[4]": {"test_system": "CHEAL, Lambsquarters, Chenopodium album, L. Common", "assay": "Postemergence herbicidal evaluation (Example 147)", "conditions": "rating scale 0-9, two to three weeks after treatment", "protocol": "as §1"}, "[5]": {"test_system": "DIGSA, Crabgrass, (Hairy) L, Digitaria sanguinalis, (L)Scop", "assay": "Postemergence herbicidal evaluation (Example 147)", "conditions": "rating scale 0-9, two to three weeks after treatment", "protocol": "as §1"}, "[6]": {"test_system": "ECHCG, Barnyardgrass, Echinochloa crusgalli, (L.)Beau", "assay": "Postemergence herbicidal evaluation (Example 147)", "conditions": "rating scale 0-9, two to three weeks after treatment", "protocol": "as §1"}, "[7]": {"test_system": "GLXMA, Soybean, Glycine max, (L.) Merr.", "assay": "Postemergence herbicidal evaluation (Example 147)", "conditions": "rating scale 0-9, two to three weeks after treatment", "protocol": "as §1"}, "[8]": {"test_system": "IPOHE, Morningglory, Ivyleaf, Ipomoea hederacea, (L)Jacq.", "assay": "Postemergence herbicidal evaluation (Example 147)", "conditions": "rating scale 0-9, two to three weeks after treatment", "protocol": "as §1"}, "[9]": {"test_system": "SETVI, Green foxtail, Setaria viridis, (L.)Beau", "assay": "Postemergence herbicidal evaluation (Example 147)", "conditions": "rating scale 0-9, two to three weeks after treatment", "protocol": "as §1"}, "[10]": {"test_system": "TRZAW, Winter wheat, Tritium Aestivum, L. (Winter)", "assay": "Postemergence herbicidal evaluation (Example 147)", "conditions": "rating scale 0-9, two to three weeks after treatment", "protocol": "as §1"}, "[11]": {"test_system": "XANST, Cocklebur, Xanthium strumariam", "assay": "Postemergence herbicidal evaluation (Example 147)", "conditions": "rating scale 0-9, two to three weeks after treatment", "protocol": "as §1"}, "[12]": {"test_system": "ZEAMX, Field corn, Zea mays L.", "assay": "Postemergence herbicidal evaluation (Example 147)", "conditions": "rating scale 0-9, two to three weeks after treatment", "protocol": "as §1"}, "[13]": {"test_system": "ABUTH, Velvetleaf, Abutilon theophrasti, Medic.", "assay": "Preemergence herbicidal evaluation (Example 148)", "conditions": "rating scale 0-9, two to four weeks after treatment", "protocol": "(§2) The scale is based upon a visual observation of plant stand, vigor, malformation, size, chlorosis and overall plant appearance as compared with a control.\n(§3) The herbicidal activity of the compounds of the present invention was evaluated by the following tests wherein the seeds of a variety of monocotyledonous and dicotyledonous plants were separately mixed with potting soil and planted on top of approximately one inch of soil in separate pint cups. After planting, the cups were sprayed with the selected aqueous acetone solution containing test compound in sufficient quantity to provide the equivalent of about 0.125 to 0.250 kg per hectare of test compound per cup. The treated cups were then placed on greenhouse benches, watered and cared for in accordance with conventional greenhouse procedures. From two to four weeks after treatment, the tests were terminated and each cup was examined and rated according to the rating system provided in Example 94. When more than one test was performed for a given compound, the data were averaged."}, "[14]": {"test_system": "ALOMY, Blackgrass, Alopecurus myosuroides", "assay": "Preemergence herbicidal evaluation (Example 148)", "conditions": "rating scale 0-9, two to four weeks after treatment", "protocol": "as §2, §3"}, "[15]": {"test_system": "AMBEL, Ragweed, Common, Ambrosia artemiisifolia, L.", "assay": "Preemergence herbicidal evaluation (Example 148)", "conditions": "rating scale 0-9, two to four weeks after treatment", "protocol": "as §2, §3"}, "[16]": {"test_system": "CHEAL, Lambsquarters, Chenopodium album, L. Common", "assay": "Preemergence herbicidal evaluation (Example 148)", "conditions": "rating scale 0-9, two to four weeks after treatment", "protocol": "as §2, §3"}, "[17]": {"test_system": "DIGSA, Crabgrass, (Hairy) L, Digitaria sanguinalis, (L)Scop", "assay": "Preemergence herbicidal evaluation (Example 148)", "conditions": "rating scale 0-9, two to four weeks after treatment", "protocol": "as §2, §3"}, "[18]": {"test_system": "ECHCG, Barnyardgrass, Echinochloa crusgalli, (L.)Beau", "assay": "Preemergence herbicidal evaluation (Example 148)", "conditions": "rating scale 0-9, two to four weeks after treatment", "protocol": "as §2, §3"}, "[19]": {"test_system": "IPOHE, Morningglory, Ivyleaf, Ipomoea hederacea, (L)Jacq.", "assay": "Preemergence herbicidal evaluation (Example 148)", "conditions": "rating scale 0-9, two to four weeks after treatment", "protocol": "as §2, §3"}, "[20]": {"test_system": "SETVI, Green foxtail, Setaria viridis, (L.)Beau", "assay": "Preemergence herbicidal evaluation (Example 148)", "conditions": "rating scale 0-9, two to four weeks after treatment", "protocol": "as §2, §3"}, "[21]": {"test_system": "TRZAW, Winter wheat, Tritium Aestivum, L. (Winter)", "assay": "Preemergence herbicidal evaluation (Example 148)", "conditions": "rating scale 0-9, two to four weeks after treatment", "protocol": "as §2, §3"}, "[22]": {"test_system": "ZEAMX, Field corn, Zea mays L.", "assay": "Preemergence herbicidal evaluation (Example 148)", "conditions": "rating scale 0-9, two to four weeks after treatment", "protocol": "as §2, §3"}}}
{"smiles": "CCC(C)NS(=O)(=O)NC(=O)c1cc(-n2c(=O)cc(C(F)(F)F)n(C)c2=O)c(F)cc1Cl", "note": "(centres unmarked) [Example 64]", "values": [{"measurement": "Postemergence herbicidal rating ABUTH", "setting": "[1]; rate 0.016 kg/ha", "value": 9.0}, {"measurement": "Postemergence herbicidal rating ABUTH", "setting": "[1]; rate 0.032 kg/ha", "value": 9.0}, {"measurement": "Postemergence herbicidal rating ALMOY", "setting": "[2]; rate 0.016 kg/ha", "value": 3.0}, {"measurement": "Postemergence herbicidal rating ALMOY", "setting": "[2]; rate 0.032 kg/ha", "value": 5.0}, {"measurement": "Postemergence herbicidal rating AMBEL", "setting": "[3]; rate 0.016 kg/ha", "value": 9.0}, {"measurement": "Postemergence herbicidal rating AMBEL", "setting": "[3]; rate 0.032 kg/ha", "value": 9.0}, {"measurement": "Postemergence herbicidal rating CHEAL", "setting": "[4]; rate 0.016 kg/ha", "value": 9.0}, {"measurement": "Postemergence herbicidal rating CHEAL", "setting": "[4]; rate 0.032 kg/ha", "value": 9.0}, {"measurement": "Postemergence herbicidal rating DIGSA", "setting": "[5]; rate 0.016 kg/ha", "value": 5.0}, {"measurement": "Postemergence herbicidal rating DIGSA", "setting": "[5]; rate 0.032 kg/ha", "value": 5.0}, {"measurement": "Postemergence herbicidal rating ECHCG", "setting": "[6]; rate 0.016 kg/ha", "value": 9.0}, {"measurement": "Postemergence herbicidal rating ECHCG", "setting": "[6]; rate 0.032 kg/ha", "value": 9.0}, {"measurement": "Postemergence herbicidal rating GLXMA", "setting": "[7]; rate 0.016 kg/ha", "value": 7.5}, {"measurement": "Postemergence herbicidal rating GLXMA", "setting": "[7]; rate 0.032 kg/ha", "value": 8.0}, {"measurement": "Postemergence herbicidal rating IPOHE", "setting": "[8]; rate 0.016 kg/ha", "value": 9.0}, {"measurement": "Postemergence herbicidal rating IPOHE", "setting": "[8]; rate 0.032 kg/ha", "value": 9.0}, {"measurement": "Postemergence herbicidal rating SETVI", "setting": "[9]; rate 0.016 kg/ha", "value": 8.0}, {"measurement": "Postemergence herbicidal rating SETVI", "setting": "[9]; rate 0.032 kg/ha", "value": 9.0}, {"measurement": "Postemergence herbicidal rating TRZAW", "setting": "[10]; rate 0.016 kg/ha", "value": 6.0}, {"measurement": "Postemergence herbicidal rating TRZAW", "setting": "[10]; rate 0.032 kg/ha", "value": 7.0}, {"measurement": "Postemergence herbicidal rating XANST", "setting": "[11]; rate 0.016 kg/ha", "value": 9.0}, {"measurement": "Postemergence herbicidal rating XANST", "setting": "[11]; rate 0.032 kg/ha", "value": 9.0}, {"measurement": "Postemergence herbicidal rating ZEAMX", "setting": "[12]; rate 0.016 kg/ha", "value": 7.5}, {"measurement": "Postemergence herbicidal rating ZEAMX", "setting": "[12]; rate 0.032 kg/ha", "value": 8.0}, {"measurement": "Preemergence herbicidal rating ABUTH", "setting": "[13]; rate 0.125 kg/ha", "value": 9.0}, {"measurement": "Preemergence herbicidal rating ABUTH", "setting": "[13]; rate 0.25 kg/ha", "value": 9.0}, {"measurement": "Preemergence herbicidal rating ALMOY", "setting": "[14]; rate 0.125 kg/ha", "value": 0.0}, {"measurement": "Preemergence herbicidal rating ALMOY", "setting": "[14]; rate 0.25 kg/ha", "value": 4.0}, {"measurement": "Preemergence herbicidal rating AMBEL", "setting": "[15]; rate 0.125 kg/ha", "value": 9.0}, {"measurement": "Preemergence herbicidal rating AMBEL", "setting": "[15]; rate 0.25 kg/ha", "value": 9.0}, {"measurement": "Preemergence herbicidal rating CHEAL", "setting": "[16]; rate 0.125 kg/ha", "value": 9.0}, {"measurement": "Preemergence herbicidal rating CHEAL", "setting": "[16]; rate 0.25 kg/ha", "value": 9.0}, {"measurement": "Preemergence herbicidal rating DIGSA", "setting": "[17]; rate 0.125 kg/ha", "value": 8.0}, {"measurement": "Preemergence herbicidal rating DIGSA", "setting": "[17]; rate 0.25 kg/ha", "value": 9.0}, {"measurement": "Preemergence herbicidal rating ECHCG", "setting": "[18]; rate 0.125 kg/ha", "value": 3.0}, {"measurement": "Preemergence herbicidal rating ECHCG", "setting": "[18]; rate 0.25 kg/ha", "value": 7.0}, {"measurement": "Preemergence herbicidal rating IPOHE", "setting": "[19]; rate 0.125 kg/ha", "value": 9.0}, {"measurement": "Preemergence herbicidal rating IPOHE", "setting": "[19]; rate 0.25 kg/ha", "value": 9.0}, {"measurement": "Preemergence herbicidal rating SETVI", "setting": "[20]; rate 0.125 kg/ha", "value": 8.0}, {"measurement": "Preemergence herbicidal rating SETVI", "setting": "[20]; rate 0.25 kg/ha", "value": 9.0}, {"measurement": "Preemergence herbicidal rating TRZAW", "setting": "[21]; rate 0.125 kg/ha", "value": 0.0}, {"measurement": "Preemergence herbicidal rating TRZAW", "setting": "[21]; rate 0.25 kg/ha", "value": 3.0}, {"measurement": "Preemergence herbicidal rating ZEAMX", "setting": "[22]; rate 0.125 kg/ha", "value": 0.0}, {"measurement": "Preemergence herbicidal rating ZEAMX", "setting": "[22]; rate 0.25 kg/ha", "value": 2.0}]}
